Experimental findings from PubChem BioAssay (NCI) are described below.

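Step 1: Grow cells in 96-well plates. Step 2: Expose to compound for 48 hours at 5 concentrations. Step 3: Interpolate endpoints linearly; if unreached, use highest concentration. TGI marks complete inhibition of growth.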 Some results are limits rather than exact numbers.

By TGI is commonly meant the concentration giving total growth inhibition. Read a high TGI as less potent growth arrest.

Test systems include 786-0 renal; DU-145 prostate; HCC-2998 colon; HL-60(TB) leukemia; HOP-62 NSCLC; LOX IMVI melanoma; MDA-MB-231 breast; MDA-N; NCI-H460 lung; OVCAR-8 ovarian; T-47D breast.
Holding throughout (assay): DTP human tumour cell line panel, 48 h

Regarding `N/C(=N\Nc1ccc(Cl)cc1)c1cnccn1`, the TGI in the experiment on 786-0 renal is more than 100 µM; in the experiment with DU-145 prostate, more than 100 µM; in the experiment on HCC-2998 colon it was 79.1 µM; with HL-60(TB) leukemia, more than 100 µM; with HOP-62 NSCLC it was more than 100 µM; with LOX IMVI melanoma it was more than 100 µM. In addition, the TGI with MDA-MB-231 breast, in the experiment on MDA-N, with NCI-H460 lung, with OVCAR-8 ovarian and in the experiment with T-47D breast was more than 100 µM in each case.
Take `COc1c(Br)cc2ccccc2c1-c1c(OC)c(Br)cc2ccccc12`: the TGI in the experiment on 786-0 renal, in the experiment on DU-145 prostate, with HCC-2998 colon, in the experiment with HL-60(TB) leukemia, in the experiment with HOP-62 NSCLC and with LOX IMVI melanoma was more than 100 µM in each case. The TGI in the experiment on MDA-MB-231 breast, with MDA-N, in the experiment with NCI-H460 lung, with OVCAR-8 ovarian and in the experiment with T-47D breast was more than 100 µM in each case.
Consider `O=C1CSC(c2ccc([N+](=O)[O-])cc2)N1c1ccc(-c2ccc(-n3c(-c4ccccc4)nc4ccccc4c3=O)cc2)cc1` (configuration not stated), for which the total growth inhibition concentration (TGI) in the experiment with 786-0 renal, in the experiment on DU-145 prostate, with HCC-2998 colon, in the experiment on HL-60(TB) leukemia, in the experiment with HOP-62 NSCLC and in the experiment with LOX IMVI melanoma was more than 100 µM in each case. For the same molecule, the total growth inhibition concentration (TGI) in the experiment on MDA-MB-231 breast, in the experiment with MDA-N, in the experiment with NCI-H460 lung, with OVCAR-8 ovarian and with T-47D breast was more than 100 µM each time.
On to `CCCCc1ccc(Nc2nc(Cl)c3c(ncn3C3CC(Oc4ccc(C)cc4)C(COc4ccc(C)cc4)O3)n2)cc1` (configuration not stated), for which the TGI with 786-0 renal, in the experiment with DU-145 prostate, with HCC-2998 colon, with HL-60(TB) leukemia, in the experiment with HOP-62 NSCLC and in the experiment on LOX IMVI melanoma was more than 100 µM each time. Moreover, the TGI with MDA-MB-231 breast, in the experiment with MDA-N, in the experiment with NCI-H460 lung, in the experiment with OVCAR-8 ovarian and in the experiment with T-47D breast was more than 100 µM each time.
For `COC(=O)C(Cc1c[nH]c2ccccc12)NP(=O)(O)OCC1OC(n2cc(Br)c(=O)[nH]c2=O)CC1O` (configuration not stated), the TGI with 786-0 renal, in the experiment on DU-145 prostate, in the experiment with HCC-2998 colon, in the experiment with HL-60(TB) leukemia, with HOP-62 NSCLC and in the experiment with LOX IMVI melanoma was more than 100 µM each time. Further, the TGI in the experiment with MDA-MB-231 breast, in the experiment on MDA-N, in the experiment with NCI-H460 lung, in the experiment with OVCAR-8 ovarian and in the experiment on T-47D breast was more than 100 µM each time.
On to `C/C=C(\C)C(=O)O[C@@H]1CC(C)(C)CC2C3=CCC4[C@]56CC[C@](O)(OC5)C(C)(C)C6CC[C@@]4(C)C3(C)CC[C@]21C(=O)O` (some centres not stated), for which the TGI in the experiment with 786-0 renal, in the experiment on DU-145 prostate, in the experiment with HCC-2998 colon, in the experiment on HL-60(TB) leukemia, with HOP-62 NSCLC and in the experiment on LOX IMVI melanoma was more than 100 µM in each case. Further, the TGI in the experiment on MDA-MB-231 breast, in the experiment on MDA-N, with NCI-H460 lung, in the experiment on OVCAR-8 ovarian and in the experiment on T-47D breast was more than 100 µM in each case.
With `Cn1c2ccccc2c2cc(N3CCCC3)c3c(c21)C(=O)N(c1ccccc1)C3=O`, the TGI in the experiment with 786-0 renal is 95.5 µM; in the experiment with DU-145 prostate it was more than 100 µM; in the experiment on HCC-2998 colon it was more than 100 µM; in the experiment on HL-60(TB) leukemia, more than 100 µM; in the experiment with HOP-62 NSCLC, more than 100 µM; in the experiment on LOX IMVI melanoma, more than 100 µM. The TGI in the experiment on MDA-MB-231 breast, in the experiment with MDA-N, with NCI-H460 lung, in the experiment on OVCAR-8 ovarian and in the experiment on T-47D breast was more than 100 µM in each case.
